According to patent publication US8785199B2, “Culture medium and method for inducing differentiation into adipocytes” (Fujirebio, Inc, priority 2009, dated 2014):

What follows are compounds tested on human bone marrow-derived mesenchymal stem cells (assay: Differentiation induction of human bone marrow-derived mesenchymal stem cells into adipocytes (oil red O staining, adiponectin ELISA, real-time PCR)). Settings: not given.
Type: cell-based
Method: A serum-free control culture medium (Comparative Example 1) was produced by adding 5 μM of LPA, 1 mM of vitamin C, 100 μM of biotin, and 41.5 nM of progesterone to Dulbecco's modified Eagle's medium (DMEM) containing HEPES (concentration of 25 mM).
To HEPES-containing DMEM, at the final concentrations, 500 μM of isobutylmethylxanthine (IBMX), 1 μM of dexamethasone, 1 μM of insulin, and 1 μM of rosiglitazone were added to produce an adipocyte differentiation inducing culture medium.
To the above adipocyte differentiation inducing culture medium, 5 μM of LPA, 1 mM of vitamin C, 100 μM of biotin, and 41.5 nM of progesterone were added to produce a serum-free differentiation inducing culture medium according to the present invention (hereinafter referred to as serum-free differentiation culture medium: Example 1).
To each of HEPES-containing DMEM and the adipocyte differentiation inducing culture medium, 10% of fetal bovine serum (FBS) was added to produce a conventional culture medium (Comparative Example 2) and a conventional differentiation culture medium (Comparative Example 3).
Human bone marrow-derived mesenchymal stem cells (strain name: normal human mesenchymal stem cells (Cryo hMSC purchased from LONZA) were seeded in a culture container with a 48-hole culture plate at a cell density of 30,000 cells/cm^2. These culture media were replaced with respective fresh ones every three to four days to culture the cells at 37 degrees C. and 5% CO2 for 7 to 21 days, thereby inducing differentiation into adipocytes.
The adipocytes were confirmed by oil red 0 staining of lipid droplets accumulated in the cells. Additionally, the oil red O-stained cells were extracted with isopropanol to measure the quantity of lipid accumulated in the cells using an absorption spectrophotometer (wavelength of 492 nm). Then, the quantities of adiponectin secreted from the cells in the three days: Day 4 to Day 7, Day 11 to Day 14, and Day 18 to Day 21 of differentiation induction were confirmed using an adiponectin ELISA kit (Fujirebio Inc). Furthermore, the mRNA expressions of PPAR-gamma and adiponectin were confirmed by real-time PCR. The forward and reverse primers for PPRA-gamma used were […] (SEQ ID NO:1) and tcgcctttgctttggtcag (SEQ ID NO:2), respectively; the forward and reverse primers for adiponectin used were […] (SEQ ID NO:3) and […] (SEQ ID NO:4), respectively; and the forward and reverse primers for GAPDH used were […] (SEQ ID NO:5) and […] (SEQ ID NO:6), respectively.
As in Example 1, at the final concentrations, 500 μM of IBMX, 1 μM of dexamethasone, 1 μM of insulin, and 1 μM of rosiglitazone were added to HEPES-containing DMEM to produce an adipocyte differentiation inducing culture medium. To the adipocyte differentiation inducing basal medium, 5 μM of LPA, 1 mM of vitamin C, […], and 41.5 nM of progesterone were added to produce a serum-free differentiation culture medium according to the present invention (Example 2). On the other hand, for comparison, there were also prepared a culture medium without LPA alone (Comparative Example 4), a culture medium without vitamin C alone (Comparative Example 5), a culture medium without biotin alone (Comparative Example 6), and a culture medium without progesterone alone (Comparative Example 7).
To DMEM not containing HEPES, at the final concentrations, 500 μM of IBMX, 1 μM of dexamethasone, 1 μM of insulin, and 1 μM of rosiglitazone were added to produce an adipocyte differentiation inducing culture medium 2. To the adipocyte differentiation inducing basal medium 2, 5 μM of LPA, 1 mM of vitamin C, 100 μM of biotin, and 41.5 nM of progesterone were added to produce a serum-free differentiation culture medium 2 (Comparative Example 8).
As in Example 1, human bone marrow-derived mesenchymal stem cells were seeded in the wells of a 48-hole culture plate at the cell density of 30,000 cells/cm^2. […]

Compound | effect on the quantity of lipid droplets in adipocytes when added to the culture medium
CC(=O)[C@H]1CC[C@H]2[C@@H]3CCC4=CC(=O)CC[C@]4(C)[C@H]3CC[C@]12C [progesterone] | increasing the quantity of lipid droplets in adipocytes

Same assay, conditions: component left out of the serum-free differentiation culture medium; 21 days; FIG. 4

Compound | necessity of the component for inducing differentiation into adipocytes
1-oleoyl lysophosphatidic acid sodium [LPA] | necessary
O=C(O)CCCC[C@@H]1SC[C@@H]2NC(=O)N[C@@H]21 [biotin] | necessary
O=S(=O)(O)CCN1CCN(CCO)CC1 [HEPES, 2-[4-(2-hydroxyethyl)-1-piperazinyl]ethanesulfonic acid] | necessary
CC(=O)[C@H]1CC[C@H]2[C@@H]3CCC4=CC(=O)CC[C@]4(C)[C@H]3CC[C@]12C [progesterone] | not essential
O=C1O[C@H]([C@@H](O)CO)C(O)=C1O [vitamin C] | necessary
